A short description of data set [1]: Solubility / aggregation observed in ITC experiments. It is filed as physicochemical. The settings on record: limits use of peptide as titrant in ITC; 50 mM Tris (pH 7.5), 50 mM NaCl, 5 mM CaCl2. How it is done:
(§1) ITC experiments were performed using a MicroCal ITC200 instrument. […] If necessary, minor adjustments were made to the pH of the peptide solution. […] One injection of 0.2 μL, followed by 20 injections of 2 μL, was made with a 180 s spacing to allow the baseline to return after each injection. All experiments were performed in triplicate. The data were analyzed with a one-site (three-parameter) curve fitting conducted using the MicroCal-supported ITC module within Origin version 7.

The target in a further data set is T1, NCS-1 (Homo sapiens, UniProt P62166).
T1 construct: His tag (TEV-cleavable) (N, cleaved yes); made in house; host or cells: Escherichia coli BL21(DE3)
Put plainly: Isothermal titration calorimetry, NCS-1 titrated into PQIQ peptide. It counts as binding. Particulars: 100 μM PQIQ in cell, 1 mM NCS-1 in syringe, 25 °C, pH 7.5; complex aggregates. The protocol:
The peptide used corresponds to residues 1903–1929 of the human P/Q receptor. The synthetic P/Q peptide, […] (hereafter termed the PQIQ peptide), was purchased from GenicBio. The peptide was delivered >95% pure.
Expression was induced overnight at 18 °C; cells were harvested, resuspended into lysis buffer [50 mM Tris-HCl (pH 7.5), 200 mM NaCl, 5 mM CaCl2, and Complete EDTA Free Protease Inhibitor (Roche Applied Science)], lysed, centrifuged, filtered, and loaded onto the Hiprep 16/10 Phenyl FF High Sub (GE Healthcare) column that was pre-equilibrated with buffer A [50 mM Tris-HCl (pH 7.5), 200 mM NaCl, and 5 mM CaCl2]. The column was extensively washed with buffer A and NCS-1 eluted using Milli-Q water. […] The purity of the sample was assessed by sodium dodecyl sulfate–polyacrylamide gel electrophoresis (SDS–PAGE) and deemed to be >95% pure. The eluted peak was concentrated and stored at −80 °C.
as §1

No end group written: not given here.

T1 sequence (P62166 whole entry, species assumed): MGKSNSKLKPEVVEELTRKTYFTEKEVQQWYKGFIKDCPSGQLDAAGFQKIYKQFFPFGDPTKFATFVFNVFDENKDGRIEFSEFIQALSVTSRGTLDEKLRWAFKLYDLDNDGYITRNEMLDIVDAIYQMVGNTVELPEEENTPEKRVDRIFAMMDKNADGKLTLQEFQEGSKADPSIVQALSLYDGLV

With “TVGKIYAAMMIMEYYRQSKAKKLQAMR [PQIQ peptide]”, the solubility result in data set [1] is given as “limitations in PQIQ peptide solubility”. Also, on NCS-1, the equilibrium binding constant result is reported as “not possible to obtain reliable equilibrium binding constants”.

The values above are taken from article PMC4180279 (Biochemistry, 2014).
